Measurements: patent US20140135270A1, “MACROCYCLIC COMPOUNDS FOR INHIBITION OF INHIBITORS OF APOPTOSIS” (Ensemble Therapeutics Corp., priority 2012, published 2014)
pIC50: −log10 of the molar value.

How the values were obtained:
[1] = target: T1, His-BIR2-3 (125-356, C202A/C213G, XIAP) (Homo sapiens, UniProt P98170, C202A/C213G); test: XIAP-BIR2-3 Dimeric SMAC Peptide Homogeneous Time Resolved Fluorescence (HTRF) Assay; format: binding; conditions: fluorescein labeled dimeric SMAC peptide
T1 construct: additions of His-BIR2-3 (125-356, C202A/C213G, XIAP), fluorescein labeled dimeric SMAC peptide

His-BIR3 (241-356, XIAP) = target: T2, His-BIR3 (241-356, XIAP) (Homo sapiens, UniProt P98170); test: XIAP-BIR3/SMAC Homogeneous Time Resolved Fluorescence (HTRF) Assay; format: binding; conditions: fluorescein labeled SMAC peptide
T2 construct: additions of His-BIR3 (241-356, XIAP), fluorescein labeled SMAC peptide
T2 sequence (P98170 241-356): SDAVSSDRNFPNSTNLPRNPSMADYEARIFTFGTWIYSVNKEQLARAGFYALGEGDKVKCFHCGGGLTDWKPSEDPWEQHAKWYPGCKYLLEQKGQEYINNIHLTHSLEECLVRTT

T1 sequence (P98170 125-356 C202A/C213G): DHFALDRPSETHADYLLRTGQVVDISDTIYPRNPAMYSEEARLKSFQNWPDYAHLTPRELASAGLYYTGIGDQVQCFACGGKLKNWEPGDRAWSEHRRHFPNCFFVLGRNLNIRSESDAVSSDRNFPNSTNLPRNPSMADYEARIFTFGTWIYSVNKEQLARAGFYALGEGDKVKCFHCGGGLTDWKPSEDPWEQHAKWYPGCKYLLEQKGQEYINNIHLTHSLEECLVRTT

Row | Compound | pIC50 [1] | pIC50 (His-BIR3 (241-356, XIAP))
1 | CN[C@@H](C)C(=O)N[C@H](C(=O)N1C[C@@H]2C[C@H]1C(=O)N[C@@H](Cc1ccc3ccccc3c1)C(=O)N[C@H](C(=O)O)Cc1ccc(cc1)OCCCC[C@H]1C[C@@H](C(=O)N[C@@H](Cc3ccc4ccccc4c3)C(=O)N[C@H](C(=O)NS(C)(=O)=O)Cc3ccc(cc3)OCc3cn2nn3)N(C(=O)[C@@H](NC(=O)[C@H](C)NC)C(C)(C)C)C1)C(C)(C)C [Example 2] | 9.10 | 8.64
2 | CNC(C)C(=O)NC(C(=O)N1CC2CC1C(=O)NC(Cc1ccc3ccccc3c1)C(=O)NC(C(=O)O)Cc1ccc(cc1)OCc1cn(nn1)C1CC(C(=O)NC(Cc3ccc4ccccc4c3)C(=O)NC(C(=O)O)Cc3ccc(cc3)OCC=CCO2)N(C(=O)C(NC(=O)C(C)NC)C(C)(C)C)C1)C(C)(C)C (stereo not shown) [Example 4] | 9.15 | 8.39
3 | CNC(C)C(=O)NC(C(=O)N1CC2CC1C(=O)NC(Cc1ccc3ccccc3c1)C(=O)NC(C(=O)O)Cc1ccc(cc1)OCCCCC1CC(C(=O)NC(Cc3ccc4ccccc4c3)C(=O)NC(C(=O)NS(=O)(=O)C(C)C)Cc3ccc(cc3)OCc3cn2nn3)N(C(=O)C(NC(=O)C(C)NC)C(C)(C)C)C1)C(C)(C)C (stereo not shown) [Example 10] | 8.51 | 8.18
4 | CN[C@@H](C)C(=O)N[C@H](C(=O)N1CC[C@@H]2OC/C=C/COc3ccc(cc3)C[C@@H](C(=O)O)NC(=O)[C@H](Cc3ccc4ccccc4c3)NC(=O)[C@@H]3[C@@H](CCN3C(=O)[C@@H](NC(=O)[C@H](C)NC)C(C)(C)C)OCc3cn(nn3)CCC[C@@H](C(=O)O)NC(=O)[C@H](Cc3ccc4ccccc4c3)NC(=O)[C@H]21)C(C)(C)C [Example 11] | 8.64 | 9.10
5 | CN[C@@H](C)C(=O)N[C@H](C(=O)N1CC[C@H]2OCc3cn(nn3)-c3ccc(cc3)C[C@@H](C(=O)O)NC(=O)[C@H](Cc3ccc4ccccc4c3)NC(=O)[C@@H]3C[C@@H](CN3C(=O)[C@@H](NC(=O)[C@H](C)NC)C(C)(C)C)OC/C=C/COc3ccc(cc3)C[C@@H](C(=O)O)NC(=O)[C@H](Cc3ccc4ccccc4c3)NC(=O)[C@H]21)C(C)(C)C [Example 12] | 8.92 | 8.92
6 | CN[C@@H](C)C(=O)N[C@H](C(=O)N1CCC2[C@H]1C(=O)N[C@@H](Cc1ccc3ccccc3c1)C(=O)N[C@H](C(=O)O)Cc1ccc(cc1)OC/C=C/CO[C@H]1C[C@@H](C(=O)N[C@@H](Cc3ccc4ccccc4c3)C(=O)N[C@H](C(=O)O)Cc3ccc(cc3)OCc3cn2nn3)N(C(=O)[C@@H](NC(=O)[C@H](C)NC)C(C)(C)C)C1)C(C)(C)C (stereo partly shown) [Example 13] | 7.91 | 8.27
7 | CN[C@@H](C)C(=O)N[C@H](C(=O)N1CC[C@H]2OC/C=C/COc3ccc(cc3)C[C@@H](C(=O)O)NC(=O)[C@H](Cc3ccc4ccccc4c3)NC(=O)[C@@H]3[C@@H](CCN3C(=O)[C@@H](NC(=O)[C@H](C)NC)C(C)(C)C)OCc3cn(nn3)[C@H](C(=O)O)CCNC(=O)[C@H](Cc3ccc4ccccc4c3)NC(=O)[C@H]21)C(C)(C)C [Example 14] | 8.43 | 7.77
8 | CN[C@@H](C)C(=O)N[C@H](C(=O)N1CC[C@H]2OC/C=C/CC[C@@H](C(=O)O)NC(=O)[C@H](Cc3ccc4ccccc4c3)NC(=O)[C@@H]3[C@@H](CCN3C(=O)[C@@H](NC(=O)[C@H](C)NC)C(C)(C)C)OCc3cn(nn3)[C@H](C(=O)O)CCNC(=O)[C@H](Cc3ccc4ccccc4c3)NC(=O)[C@H]21)C(C)(C)C [Example 15] | 8.39 | 7.41
9 | CN[C@@H](C)C(=O)N[C@H](C(=O)N1CC[C@H]2OCc3cn(nn3)CC[C@@H](C(=O)OC)NC(=O)[C@H](Cc3ccc4ccccc4c3)NC(=O)[C@@H]3[C@@H](CCN3C(=O)[C@@H](NC(=O)[C@H](C)NC)C(C)(C)C)OC/C=C/CC[C@@H](C(=O)O)NC(=O)[C@H](Cc3ccc4ccccc4c3)NC(=O)[C@H]21)C(C)(C)C [Example 16] | 8.46 | 8.21
10 | CN[C@@H](C)C(=O)N[C@H](C(=O)N1CC[C@H]2OCc3cn(nn3)CC[C@@H](C(=O)OC)NC(=O)[C@H](Cc3ccc4ccccc4c3)NC(=O)[C@@H]3[C@@H](CCN3C(=O)[C@@H](NC(=O)[C@H](C)NC)C(C)(C)C)OC/C=C/COc3ccc(cc3)C[C@@H](C(=O)O)NC(=O)[C@H](Cc3ccc4ccccc4c3)NC(=O)[C@H]21)C(C)(C)C [Example 17] | 8.74 | 8.74
11 | CN[C@@H](C)C(=O)N[C@H](C(=O)N1CC[C@@H]2OC/C=C/COc3ccc(cc3)C[C@@H](C(=O)O)NC(=O)[C@H](Cc3ccc4ccccc4c3)NC(=O)[C@@H]3[C@H](CCN3C(=O)[C@@H](NC(=O)[C@H](C)NC)C(C)(C)C)OCc3cn(nn3)[C@H](C(=O)NS(C)(=O)=O)CCCNC(=O)[C@H](Cc3ccc4ccccc4c3)NC(=O)[C@H]21)C(C)(C)C [Example 18] | 8.74 | 8.24
12 | CN[C@@H](C)C(=O)N[C@H](C(=O)N1CC[C@@H]2OC/C=C/CC[C@@H](C(=O)O)NC(=O)[C@H](Cc3ccc4ccccc4c3)NC(=O)[C@@H]3[C@H](CCN3C(=O)[C@@H](NC(=O)[C@H](C)NC)C(C)(C)C)OCc3cn(nn3)[C@H](C(=O)NS(C)(=O)=O)CCCNC(=O)[C@H](Cc3ccc4ccccc4c3)NC(=O)[C@H]21)C(C)(C)C [Example 19] | 7.77 | 7.45
13 | CN[C@@H](C)C(=O)N[C@H](C(=O)N[C@H]1C/C=C/CC[C@@H](C(=O)O)NC(=O)[C@H](Cc2ccc3ccccc3c2)NC(=O)[C@@H]2[C@@H](CCN2C(=O)[C@@H](NC(=O)[C@H](C)NC)C(C)(C)C)OCc2cn(nn2)CC[C@@H](C(=O)OC)NC(=O)[C@H](Cc2ccc3ccccc3c2)NC1=O)C(C)(C)C [Example 20] | 8.14 | 8.32
14 | CN[C@@H](C)C(=O)N[C@H](C(=O)N[C@H]1C/C=C/COc2ccc(cc2)C[C@H](C(=O)O)NC(=O)[C@H](Cc2ccc3ccccc3c2)NC(=O)[C@@H]2[C@@H](CCN2C(=O)[C@@H](NC(=O)[C@H](C)NC)C(C)(C)C)OCc2cn(nn2)CC[C@@H](C(=O)OC)NC(=O)[C@H](Cc2ccc3ccccc3c2)NC1=O)C(C)(C)C [Example 21] | 8.59 | 8.74
15 | CCCCCCCCCCCCS(=O)(=O)NC(=O)[C@@H]1Cc2ccc(cc2)OC/C=C/C[C@H]2C[C@@H](C(=O)N[C@@H](Cc3ccc4ccccc4c3)C(=O)N[C@H](C(=O)O)Cc3ccc(cc3)OCc3cn(nn3)[C@H]3C[C@@H](C(=O)N[C@@H](Cc4ccc5ccccc5c4)C(=O)N1)N(C(=O)[C@@H](NC(=O)[C@H](C)NC)C(C)(C)C)C3)N(C(=O)[C@@H](NC(=O)[C@H](C)NC)C(C)(C)C)C2 [Example 23] | 8.16 | 7.47
16 | CN[C@@H](C)C(=O)N[C@H](C(=O)N1C[C@H]2C/C=C/COc3ccc(cc3)C[C@@H](C(=O)NS(=O)(=O)C3CCCCC3)NC(=O)[C@H](Cc3ccc4ccccc4c3)NC(=O)[C@@H]3C[C@@H](CN3C(=O)[C@@H](NC(=O)[C@H](C)NC)C(C)(C)C)n3cc(nn3)COc3ccc(cc3)C[C@@H](C(=O)O)NC(=O)[C@H](Cc3ccc4ccccc4c3)NC(=O)[C@@H]1C2)C(C)(C)C [Example 24] | 9.70 | 9.15
17 | CN[C@@H](C)C(=O)N[C@H](C(=O)N1C[C@H]2C/C=C/COc3ccc(cc3)C[C@@H](C(=O)NS(=O)(=O)C3CC3)NC(=O)[C@H](Cc3ccc4ccccc4c3)NC(=O)[C@@H]3C[C@@H](CN3C(=O)[C@@H](NC(=O)[C@H](C)NC)C(C)(C)C)n3cc(nn3)COc3ccc(cc3)C[C@@H](C(=O)O)NC(=O)[C@H](Cc3ccc4ccccc4c3)NC(=O)[C@@H]1C2)C(C)(C)C [Example 25] | 9.70 | 9.05
18 | CN[C@@H](C)C(=O)N[C@H](C(=O)N1C[C@H]2C/C=C/COc3ccc(cc3)C[C@@H](C(=O)NS(C)(=O)=O)NC(=O)[C@H](Cc3ccc4ccccc4c3)NC(=O)[C@@H]3C[C@@H](CN3C(=O)[C@@H](NC(=O)[C@H](C)NC)C(C)(C)C)n3cc(nn3)COc3ccc(cc3)C[C@@H](C(=O)O)NC(=O)[C@H](Cc3ccc4ccccc4c3)NC(=O)[C@@H]1C2)C(C)(C)C [Example 26] | 9.05 | 8.41
19 | CC[C@H](NC(=O)[C@H](C)NC)C(=O)N1C[C@@H]2C[C@H]1C(=O)N[C@@H](c1ccccc1)C(=O)N[C@H](C(=O)O)Cc1ccc(cc1)C(=O)N[C@H]1C[C@@H](C(=O)N[C@@H](Cc3ccc4ccccc4c3)C(=O)N[C@H](C(=O)O)Cc3ccc(cc3)OC/C=C/CO2)N(C(=O)[C@@H](NC(=O)[C@H](C)NC)C(C)(C)C)C1 [Example 52] |  | 7.11
20 | CC[C@H](NC(=O)[C@H](C)NC)C(=O)N1C[C@@H]2C[C@H]1C(=O)N[C@@H](c1ccccc1)C(=O)N[C@H](C(=O)O)Cc1ccc(cc1)C(=O)N[C@H]1C[C@@H](C(=O)N[C@@H](Cc3ccc4ccccc4c3)C(=O)N[C@H](C(=O)O)Cc3ccc(cc3)OC/C=C/CO2)N(C(=O)[C@@H](NC(=O)[C@H](C)NC)C(C)(C)C)C1 [Example 54] |  | 7.22
21 | CN[C@@H](C)C(=O)N[C@H](C(=O)N1C[C@@H]2C[C@H]1C(=O)N[C@@H](Cc1ccc3ccccc3c1)C(=O)N[C@H](C(=O)O)Cc1ccc(cc1)C(=O)N[C@H]1C[C@@H](C(=O)N[C@@H](Cc3ccc4ccccc4c3)C(=O)N[C@H](C(=O)O)Cc3ccc(cc3)OC/C=C/CO2)N(C(=O)[C@@H](NC(=O)[C@H](C)NC)C(C)(C)C)C1)C1CCNCC1 [Example 67] |  | 7.70
22 | CN[C@@H](C)C(=O)N[C@H](C(=O)N1C[C@@H]2C[C@H]1C(=O)N[C@@H](Cc1ccc3ccccc3c1)C(=O)N[C@H](C(=O)O)Cc1ccc(cc1)C(=O)N[C@H]1C[C@@H](C(=O)N[C@@H](Cc3ccc4ccccc4c3)C(=O)N[C@H](C(=O)O)Cc3ccc(cc3)OC/C=C/CO2)N(C(=O)[C@@H](NC(=O)[C@H](C)NC)C(C)(C)C)C1)C1CCNCC1 [Example 74] |  | 8.15
